Measured values published in US7655395B2, “Isolation and use of ryanodine receptors” (E.I. du Pont de Nemours and Company, priority 2002, dated 2010).

Key:
[1] = test system: recombinant Heliothis virescens ryanodine receptor (expressed in Sf9 cells); assay: Calcium release assay, Sf9 cells transiently or stably expressing Heliothis virescens ryanodine receptor (Fura-2); assay type: cell-based; conditions: for calcium response: Sf9 stably expressing H. virescens ryanodine receptor, FIG. 5
Experimental: SF9 cells were grown at 27 degrees C. in a Corning 125 ml polycarbonate Erlenmeyer flask to a density of 3.1 million cells per ml in SF900-II serum free media (Gibco catalog no. 10902-088, Invitrogen™, Carlsbad, Calif.). One million cells were transferred to one well of a Corning 6-well, flat bottom cell culture dish (Corning Inc., Acton, Mass., catalog no. 3516). SF900-II media was used to bring the final volume in the dish to 2 ml and the cells were incubated at 27 degrees C. for 21 h. Following the incubation the media was aspirated from the dish and replaced with 1 ml of SF900-II media pre-warmed to 27 degrees C.
In the case of the vectors containing the Cre recognition elements, the transfection solution was mixed in a 1.5 ml microfuge tube by combining 5 ug of pHE7 plasmid, 5 ug of pMLS104 Cre plasmid and 0.5 ug of lacZ reporter plasmid, 15 ug of cellfectin reagent (Invitrogen cat. #10362-010) and SF900-II serum free media (Gibco catalog #10902-088, Invitrogen™, Carlsbad, Calif.) in a total volume of 500 ul. The solution was incubated for 1 hour at room temperature just prior to the transfection.
The transfection was accomplished by adding the transfection solution drop-wise to the dish and incubating 4 h at room temperature with gentle rocking. After the 4 h incubation the media was replaced with 2 ml of SF900-II media pre-warmed to 27 degrees C. and the cells were incubated 3 days at 27 degrees C.
Several drops of a suspension of recombinant Spodoptera frugiperda cell line, Sf9, transiently expressing insect ryanodine receptors were placed on a poly-L-lysine-coated coverslip and allowed to attach. Cells were then rinsed in physiological saline having the following composition (mM): NaCl 130; KCl 5.4; MgCl2 1.2; CaCl2 1.0; NaHCO3 4.2; NaH2P04 7.3; Glucose 10; Sucrose 63; MES 20; pH 6.3. Cells were then bathed in physiological saline containing the calcium sensitive fluoroprobe, Fura-2 AM (2 μM), and Pluronic F127 (0.002%) for 30 min. Cells were rinsed in standard physiological saline for at least 15 min prior to testing. […]
For studies involving the stable recombinant Spodoptera frugiperda cell line, Sf9, (other cell lines could also be used such as Sf21, S2, etc) expressing an insect ryanodine receptor from Drosophila melanogaster, or Heliothis virescens (alternatively receptors from other species such as Myzus persicae, Peregrinus maidis, Aphis gossypii, etc) were grown in T75 (or other appropriate sized) flasks in supplemented Grace's insect medium. […] After a 30 minute equilibration period the cell plate was tested using a Molecular Devices' FlexStation™ system with dual wavelength excitation (340 and 380 nm) and fluorescence emission measured at 510 nm. […]

[2] = target: T1, recombinant Drosophila melanogaster ryanodine receptors (expressed in Sf9 cells) (Drosophila melanogaster, UniProt Q24498); assay type: cell-based; conditions: receptor expressed in Sf9 cells
T1 construct: expressed in transfected cells
Experimental: The Spodoptera frugiperda cell line Sf9 used for transfection studies, was maintained in Sf-900 II SFM medium (Invitrogen Life Technologies™, Carlsbad, Calif.) in T-75 flasks incubated at 27° C. It is understood that those skilled in the art might choose alternative cell types such as the Spodoptera frugiperda cell line Sf21 or the Drosophila cell line S2. For the purpose of general handling and propagation, cells were suspended through scraping or agitation and a volume of cell suspension was added to each well of a poly-L-lysine coated 96-well, glass-bottom plate so as to provide 70-80% confluence. Cells were maintained in an incubator at 27° C. until testing.
SF900-II media was used to bring the final volume in the dish to 2 ml and the cells were incubated at 27 degrees C. for 21 h. Following the incubation the media was aspirated from the dish and replaced with 1 ml of SF900-II media pre-warmed to 27 degrees C.
The transient transfection was carried out following an InsectSelect BSD System manual (Invitrogen Life Technologies™, Carlsbad, Calif.). […] The transfection was accomplished by adding the transfection solution drop-wise to the dish and incubating 4 h at room temperature with gentle rocking. […]
(§1) Several drops of a suspension of recombinant Spodoptera frugiperda cell line, Sf9, transiently expressing insect ryanodine receptors were placed on a poly-L-lysine-coated coverslip and allowed to attach. Cells were then rinsed in physiological saline having the following composition (mM): NaCl 130; KCl 5.4; MgCl2 1.2; CaCl2 1.0; NaHCO3 4.2; NaH2P04 7.3; Glucose 10; Sucrose 63; MES 20; pH 6.3. Cells were then bathed in physiological saline containing the calcium sensitive fluoroprobe, Fura-2 AM (2 μM), and Pluronic F127 (0.002%) for 30 min. Cells were rinsed in standard physiological saline for at least 15 min prior to testing. Testing was conducted in standard physiological saline, as the cell lines are devoid of functional voltage-gated calcium channels.
Cell-attached coverslips were placed in a sealed chamber with physiological saline continuously perfused across the cells using a peristaltic pump. Test compounds solubilized in physiological saline were applied by switching the perfusate source.
(§2) For studies involving the stable recombinant Spodoptera frugiperda cell line, Sf9, (other cell lines could also be used such as Sf21, S2, etc) expressing an insect ryanodine receptor from Drosophila melanogaster, or Heliothis virescens (alternatively receptors from other species such as Myzus persicae, Peregrinus maidis, Aphis gossypii, etc) were grown in T75 (or other appropriate sized) flasks in supplemented Grace's insect medium. Cells were maintained in an incubator at 22° C. until testing. Cells were suspension-loaded with the calcium sensitive fluoroprobe, Fura-2 AM (1-2 μM) and Pluronic F127 (0.002%) in culture medium for 30 minutes under agitation. Cells were then centrifuged and the pellet resuspended in physiological saline having the following composition (mM): NaCl 130; KCl 5.4; MgCl2 1.2; CaCl2 1.0; NaHCO3 4.2; NaH2P04 7.3; Glucose 10; Sucrose 63; MES 20; pH 6.3 at approximately 150,000-200,000 cells per well (96-well plate). After a 30 minute equilibration period the cell plate was tested using a Molecular Devices' FlexStation™ system with dual wavelength excitation (340 and 380 nm) and fluorescence emission measured at 510 nm. Test and control samples were added using integrated fluidics and the intracellular calcium monitored over a 2 minute period.

[3] = test system: control cells without DNA / wild-type Sf9 cells; assay: Calcium response in control Sf9 cells (without DNA, lipid only, non-transfected, wild type); assay type: cell-based, Spodoptera frugiperda
Text: as §1
Imaging studies were conducted using a Nikon Diaphot microscope with a 40× oil immersion objective (NA 1.3) Image acquisition and processing was performed using the MetaFluor™ imaging system from Universal Imaging Corporation (West Chester, Pa.) Calcium calibration was carried out using the Grynkiewicz equation with a dissociation constant (Kd) of 145 nM for Fura-2 (Grynkiewicz et al., 1985). Cell-attached coverslips were placed in a sealed chamber with physiological saline continuously perfused across the cells using a peristaltic pump. Test compounds solubilized in physiological saline were applied by switching the perfusate source.
as §2

| Structure (SMILES) | calcium response ([1]; Compound 14 1 μM) | Calcium Release Threshold (nM) D. melanogaster [2] | calcium response ([1]; caffeine 10 mM) | cytosolic [Ca2+] response ([1]; caffeine 10 mM, Sf9 transiently expressing H. virescens ryanodine receptor, 72 hr post-transfection, FIG. 4) | calcium response in control cells without DNA ([3]; caffeine 10 mM) | caffeine dose response, calcium mobilization ([3]; wild-type Sf9 cells (Sf9-WT), FlexStation, FIG. 6) |
| --- | --- | --- | --- | --- | --- | --- |
| CNC(=O)c1cc(Cl)cc(C)c1NC(=O)c1cc(Br)nn1-c1ncccc1Cl [Cpd 14] | calcium responses elicited | <300 nM |  |  |  |  |
| Cn1c(=O)c2c(ncn2C)n(C)c1=O [Caffeine, reference compound] |  |  | calcium responses elicited | increase in cytosolic [Ca^2+] | No significant calcium responses | insensitive |
